Literature values as cited in patent publication US10281459B2, “Protein biosensors, cross reactive sensor arrays and methods of use thereof” (YEDA RESEARCH AND DEVELOPMENT CO. LTD., priority 2012, dated 2019).

Legend:
[1] = target: GSTs; conditions: literature
[2] = target: MMP isoforms; conditions: broad-spectrum inhibitor of MMP isoforms; literature

Structure (SMILES) | reported values for the inhibition of GSTs [1] | Ki values [2]
C=C(CC)C(=O)c1ccc(OCC(=O)O)c(Cl)c1Cl [EA, ethacrynic acid] | low micromolar range | 
CNC(=O)[C@@H](NC(=O)[C@H](CC(C)C)[C@H](O)C(=O)NO)C(C)(C)C [Marimastat, marimastat] |  | low nanomolar range
